Laboratory results as given in patent US20260345574A1, “POTENT AND SELECTIVE IRREVERSIBLE INHIBITORS OF IRAK1” (Dana-Farber Cancer Institute, Inc., priority 2022, published 2026).
pIC50: −log10 of the molar value.

What was measured:
IRAK1 = IRAK1 (Homo sapiens, UniProt P51617); experiment: Adapta Universal Kinase Assay (ThermoFisher) against IRAK1; format: biochemical; conditions: Histone H3 (1-20) peptide substrate, 60 minutes at room temperature
Procedure: To measure the IC50 values of the compounds herein against IRAK1, the Adapta Universal Kinase Assay (ThermoFisher) was used. Briefly, 100 nL of different concentrations of the compounds in 100% DMSO were added to each well of a 384-well plate (Corning Cat. #4512). 2.4 μL of 30 mM HEPES, 2.5 μL of 4× ATP solution (in water), and 5 μL of 2× IRAK1/Histone H3 (1-20) peptide mixture (prepared in 50 mM HEPES pH 7.5, 0.01% BRIJ-35, 10 mM MgCl2, 1 mM EGTA) were added to each well. The plate was shaken for 30 seconds and centrifuged for 1 minute at 1000×g. The plate was then incubated at room temperature for 60 minutes. 5 μL of Detection Mix was added to each well. The plate was shaken for 30 seconds and centrifuged for 1 minute at 1000×g. The plate was then incubated at room temperature for 60 minutes. The plate was subsequently read on a fluorescence plate reader, and the emissions ratio was calculated to determine the ratio of ATP to ADP. Emissions Ratio=AF647 Emission (665 nm)/Europium Emission (615 nm).

IRAK4 = target: T1, IRAK4 (Homo sapiens, UniProt Q9NWZ3); experiment: Z'-LYTE assay (ThermoFisher) against IRAK4; format: biochemical; conditions: Ser/Thr 07 substrate, 60 minutes at room temperature
T1 sequence (Q9NWZ3 1-460): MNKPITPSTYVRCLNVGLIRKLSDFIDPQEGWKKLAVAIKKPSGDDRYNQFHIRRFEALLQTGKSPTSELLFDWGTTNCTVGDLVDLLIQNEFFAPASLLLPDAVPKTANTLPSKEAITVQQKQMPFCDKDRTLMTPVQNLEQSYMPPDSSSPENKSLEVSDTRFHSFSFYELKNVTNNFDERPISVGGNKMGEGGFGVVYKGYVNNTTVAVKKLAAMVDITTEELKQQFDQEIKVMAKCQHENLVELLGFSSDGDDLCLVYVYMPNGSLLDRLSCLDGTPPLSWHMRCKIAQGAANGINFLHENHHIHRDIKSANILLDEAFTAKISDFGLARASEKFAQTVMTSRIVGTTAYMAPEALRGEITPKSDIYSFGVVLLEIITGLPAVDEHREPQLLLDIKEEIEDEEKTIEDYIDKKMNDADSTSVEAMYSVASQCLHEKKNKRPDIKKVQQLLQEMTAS
Procedure: To measure the IC50 values of compounds herein against IRAK4, a Z′-LYTE assay (ThermoFisher) was used. Briefly, 2.5 μL of different concentrations of the compounds in 1% DMSO were added to 2.4 μL kinase buffer (50 mM HEPES pH 7.5, 0.01% BRIJ-35, 10 mM MgCl2, 1 mM EGTA) in each well of a 384-well plate (Corning Cat. #3676). 5 μL of 2× IRAK4/Ser/Thr 07 mixture (prepared in 50 mM HEPES pH 7.5, 0.01% BRIJ-35, 10 mM MnCl2, 2 mM DTT, and 0.02% NaN3) and 2.5 μL of 4× ATP solution (4× ATP, 50 mM HEPES, pH 7.5, 0.01% BRIJ-35, 10 mM MgCl2, 1 mM EGTA) were added to each well. The plate was shaken for 30 seconds, and then incubated at room temperature for 60 minutes. 5 μL of a 1:100000 dilution of Development Reagent A was added to each well. The plate was shaken for 30 seconds and incubated for 60 minutes at room temperature. The plate was subsequently read on a fluorescence plate reader, and the emissions ratio was calculated to determine the ratio of Ser/Thr 07 phosphorylated by the reaction. Emissions Ratio=Coumarin Emission (443 nm)/Flourescein Emission (520 nm).

Sequence of IRAK1 (P51617 whole entry): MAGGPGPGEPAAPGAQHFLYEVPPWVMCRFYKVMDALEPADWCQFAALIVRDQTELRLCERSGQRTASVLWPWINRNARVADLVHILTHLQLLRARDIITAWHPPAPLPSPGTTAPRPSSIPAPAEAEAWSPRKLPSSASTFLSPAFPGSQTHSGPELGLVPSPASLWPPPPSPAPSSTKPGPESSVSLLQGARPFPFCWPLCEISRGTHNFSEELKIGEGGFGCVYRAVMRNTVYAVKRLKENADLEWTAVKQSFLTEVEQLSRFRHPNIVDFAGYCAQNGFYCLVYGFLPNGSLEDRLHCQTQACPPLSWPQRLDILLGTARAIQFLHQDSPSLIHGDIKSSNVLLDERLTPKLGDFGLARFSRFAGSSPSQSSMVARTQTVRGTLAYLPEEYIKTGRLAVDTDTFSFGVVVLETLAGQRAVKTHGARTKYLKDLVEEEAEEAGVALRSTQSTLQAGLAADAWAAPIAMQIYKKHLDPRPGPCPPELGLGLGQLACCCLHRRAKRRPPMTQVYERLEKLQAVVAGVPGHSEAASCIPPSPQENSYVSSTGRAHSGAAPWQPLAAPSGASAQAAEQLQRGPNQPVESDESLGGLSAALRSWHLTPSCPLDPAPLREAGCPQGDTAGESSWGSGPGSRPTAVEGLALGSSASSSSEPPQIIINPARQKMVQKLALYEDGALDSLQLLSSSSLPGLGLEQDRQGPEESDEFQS

Question: How did the pIC50 (IRAK1) turn out when C=CC(=O)N1CC(c2nc(-c3ccc(NC(=O)c4cccc(-c5[nH]ncc5C)n4)nc3)no2)CC(F)(F)C1 (centres unmarked) [Compound 007, N-(5-(5-(1-acryloyl-5,5-difluoropiperidin-3-yl)-1,2,4-oxadiazol-3-yl)pyridin-2-yl)-6-(4-methyl-1H-pyrazol-5-yl)picolinamide] was run?
Answer: Its pIC50 is 8.40.

Question: And the pIC50 (IRAK4)?
Answer: The pIC50 was < 5.00.

Question: C=CC(=O)N1CCC[C@H](c2nc(-c3ccc(NC(=O)c4cccc(-c5ccn[nH]5)n4)c(Cl)c3)no2)C1 [Compound 079, (S)-N-(4-(5-(1-acryloylpiperidin-3-yl)-1,2,4-oxadiazol-3-yl)-2-chlorophenyl)-6-(1H-pyrazol-5-yl)picolinamide] was tested. Which pIC50 (IRAK1) did it give?
Answer: Its pIC50 is 8.35.

Question: What about the pIC50 (IRAK4) of the same compound?
Answer: The pIC50 was 6.01.

Question: With C=CC(=O)N1CCC[C@H](c2nc(-c3ccc(NC(=O)c4cccc(-c5ccn[nH]5)n4)nc3)no2)C1 [Compound 001, (S)-N-(5-(5-(1-acryloylpiperidin-3-yl)-1,2,4-oxadiazol-3-yl)pyridin-2-yl)-6-(1H-pyrazol-5-yl)picolinamide] as the compound, how does the pIC50 (IRAK1) read?
Answer: The pIC50 was 7.70.

Question: And the pIC50 (IRAK4)?
Answer: Its pIC50 is < 5.00.

Question: With C=CC(=O)N1CC2CC1[C@@H](c1nc(-c3ccc(NC(=O)c4cccc(-c5[nH]ncc5C)n4)nc3)no1)C2 (stereo partly drawn) [Compound 010, N-(5-(5-((6S)-2-acryloyl-2-azabicyclo[2.2.1]heptan-6-yl)-1,2,4-oxadiazol-3-yl)pyridin-2-yl)-6-(4-methyl-1H-pyrazol-5-yl)picolinamide] as the compound, how does the pIC50 (IRAK1) read?
Answer: The pIC50 was 8.29.

Question: What about the pIC50 (IRAK4) of the same compound?
Answer: Its pIC50 is < 5.00.

Question: How did the pIC50 (IRAK1) turn out when C=CC(=O)N1CCC[C@H](c2nc(-c3ccc(NC(=O)c4cccc(-c5ccn[nH]5)n4)c(OC)c3)no2)C1 [Compound 084, (S)-N-(4-(5-(1-acryloylpiperidin-3-yl)-1,2,4-oxadiazol-3-yl)-2-methoxyphenyl)-6-(1H-pyrazol-5-yl)picolinamide] was run?
Answer: Its pIC50 is 8.78.

Question: And the pIC50 (IRAK4)?
Answer: The pIC50 was 6.69.

Question: How did the pIC50 (IRAK1) turn out when C=CC(=O)N1C[C@@H](c2nc(-c3ccc(NC(=O)c4cccc(-c5ccn[nH]5)n4)nc3)no2)C[C@H](C(F)(F)F)C1 [Compound 064] was run?
Answer: The pIC50 was 7.52.

Question: And the pIC50 (IRAK4)?
Answer: The pIC50 was < 5.00.

Question: C=CC(=O)N1CCC[C@H](C(=O)Nc2ccc(NC(=O)c3csc(-c4ccn[nH]4)n3)nc2)C1 [Compound 068, (S)-N-(5-(1-acryloylpiperidine-3-carboxamido)pyridin-2-yl)-2-(1H-pyrazol-5-yl)thiazole-4-carboxamide] was tested. Which pIC50 (IRAK1) did it give?
Answer: Its pIC50 is 6.49.

Question: What about the pIC50 (IRAK4) of the same compound?
Answer: Its pIC50 is 5.24.

Question: How did the pIC50 (IRAK1) turn out when C=CC(=O)N1C[C@@H](c2nc(-c3ccc(NC(=O)c4cccc(-c5ccn[nH]5)n4)nc3)no2)CC(F)(F)C1 [Compound 063] was run?
Answer: Its pIC50 is 7.83.

Question: What about the pIC50 (IRAK4) of the same compound?
Answer: The pIC50 was < 5.00.

Question: C=CC(=O)N1CC(c2nc(-c3ccc(NC(=O)c4cccc(-c5[nH]ncc5C)n4)c(F)c3)no2)CC(F)(F)C1 (centres unmarked) [Compound 093, N-(4-(5-(1-acryloyl-5,5-difluoropiperidin-3-yl)-1,2,4-oxadiazol-3-yl)-2-fluorophenyl)-6-(4-methyl-1H-pyrazol-5-yl)picolinamide] was tested. Which pIC50 (IRAK1) did it give?
Answer: The pIC50 was 8.08.

Question: And the pIC50 (IRAK4)?
Answer: The pIC50 was < 5.00.

Question: What does the source list for C=CC(=O)N1CCC[C@H](C(=O)Nc2ccc(Nc3nsc4ccc(-c5ccn[nH]5)nc34)cc2)C1 [Compound 025]?
Answer: pIC50 (IRAK1): 8.65; pIC50 (IRAK4): 6.45

Question: With C=CC(=O)N1CCC[C@H](c2nc(-c3ccc(NC(=O)c4cccc(-c5ccnn5CC5(C(F)(F)F)CC5)n4)nc3)no2)C1 [Compound 017, (S)-N-(5-(5-(1-acryloylpiperidin-3-yl)-1,2,4-oxadiazol-3-yl)pyridin-2-yl)-6-(1-((1-(trifluoromethyl)cyclopropyl)methyl)-1H-pyrazol-5-yl)picolinamide] as the compound, how does the pIC50 (IRAK1) read?
Answer: Its pIC50 is < 5.00.

Question: What about the pIC50 (IRAK4) of the same compound?
Answer: The pIC50 was < 5.00.

Question: How did the pIC50 (IRAK1) turn out when C=CC(=O)N[C@@H]1CNC[C@H](c2nc(-c3ccc(NC(=O)c4cccc(-c5ccn[nH]5)n4)c(F)c3)no2)C1 [Compound 098, N-(4-(5-((3R,5S)-5-acrylamidopiperidin-3-yl)-1,2,4-oxadiazol-3-yl)-2-fluorophenyl)-6-(1H-pyrazol-5-yl)picolinamide] was run?
Answer: The pIC50 was 7.34.

Question: What about the pIC50 (IRAK4) of the same compound?
Answer: Its pIC50 is < 5.00.

Question: What does the source list for C=CC(=O)N1CCC[C@H](C(=O)Nc2ccc(Nc3n[nH]c4ccc(-c5ccn[nH]5)nc34)cc2)C1 [Compound 026]?
Answer: pIC50 (IRAK1): 8.16; pIC50 (IRAK4): 6.44

Question: With C=CC(=O)N1CCC[C@H](c2nc(-c3ccc(NC(=O)c4cccc(-c5[nH]ncc5C)n4)cc3)no2)C1 [Compound 085, (S)-N-(4-(5-(1-acryloylpiperidin-3-yl)-1,2,4-oxadiazol-3-yl)phenyl)-6-(4-methyl-1H-pyrazol-5-yl)picolinamide] as the compound, how does the pIC50 (IRAK1) read?
Answer: The pIC50 was 8.17.

Question: And the pIC50 (IRAK4)?
Answer: The pIC50 was 5.06.

Question: What does the source list for C=CC(=O)N1CCC[C@H](C(=O)Nc2ccc(NC(=O)c3csc(-c4ccn[nH]4)n3)cc2)C1 [Compound 071, (S)-N-(4-(1-acryloylpiperidine-3-carboxamido)phenyl)-2-(1H-pyrazol-5-yl)thiazole-4-carboxamide]?
Answer: pIC50 (IRAK1): 6.22; pIC50 (IRAK4): 5.09

Question: What does the source list for C=CC(=O)N1CCC[C@H](C(=O)Nc2ccc(-c3nnc(-c4cccc(-c5ccn[nH]5)n4)[nH]3)nc2)C1 [Compound 018]?
Answer: pIC50 (IRAK1): 8.40; pIC50 (IRAK4): 6.90
